We go through 23 compounds from US20250145594A1, “MODULATORS OF THE INTEGRATED STRESS PATHWAY” (Calico Life Sciences LLC, priority 2020, published 2025).

Where only a bound is given, the exact number is not on record here.

The assay relates to ATF4 luciferase reporter in HEK293T cells. The experiment in a line: ATF4-Luc assay (in vitro model of VWMD). The class given is cell-based, human. Particulars: Homo sapiens, HEK-293T, 7 h, HEK293T cells carrying the ATF4 luciferase reporter, 1 μg/mL tunicamycin, One Glo luminescence. Put shortly: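 Tunicamycin (1 μg/mL) stress with co-added compound for 7 hours in HEK293T cells stably carrying an ATF4 5′-UTR–luciferase reporter. EC50 values come from the luminescent signal (One Glo).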
Turning to `O=C(COc1cc(F)c(Cl)c(Br)c1)N[C@H]1C[C@H]2C[C@@H]1C[C@@H]2NC(=O)CO[C@H]1C[C@@H](OC(F)(F)F)C1` [Compound 381, 2-(3-bromo-4-chloro-5-fluorophenoxy)-N-[(1R,2S,4R,5S)-5-(2-{[cis-3-(trifluoromethoxy)cyclobutyl]oxy}acetamido)bicyclo[2.2.1]heptan-2-yl]acetamide], the EC50 was in the range of 10 to 50 nM. For the compound `O=C(NC12CC(n3cc(C(=O)N4CC[C@H](F)C4)cn3)(C1)C2)[C@H]1C[C@@H](O)c2cc(Cl)ccc2O1` [Compound 382, (2R,4R)-6-chloro-N-(3-{4-[(3S)-3-fluoropyrrolidine-1-carbonyl]-1H-pyrazol-1-yl}bicyclo[1.1.1]pentan-1-yl)-4-hydroxy-3,4-dihydro-2H-1-benzopyran-2-carboxamide], the half-maximal effective concentration (EC50) lay within 50 to 250 nM.

`O=C(NC12CC(n3cc(N4CCN(CC(F)(F)F)CC4=O)cn3)(C1)C2)[C@H]1C[C@@H](O)c2cc(Cl)ccc2O1` [Compound 383, (2R,4R)-6-chloro-4-hydroxy-N-(3-{4-[2-oxo-4-(2,2,2-trifluoroethyl)piperazin-1-yl]-1H-pyrazol-1-yl}bicyclo[1.1.1]pentan-1-yl)-3,4-dihydro-2H-1-benzopyran-2-carboxamide]: the EC50 was below 10 nM.

`O=C(NC12CC(n3cc(C(=O)N4CCC(F)(F)C4)cn3)(C1)C2)[C@H]1C[C@@H](O)c2cc(Cl)ccc2O1` [Compound 384, (2R,4R)-6-chloro-N-{3-[4-(3,3-difluoropyrrolidine-1-carbonyl)-1H-pyrazol-1-yl]bicyclo[1.1.1]pentan-1-yl}-4-hydroxy-3,4-dihydro-2H-1-benzopyran-2-carboxamide]: the EC50 is 250 to 500 nM.

For the compound `O=C(NC12CC(n3cc([C@H]4C[C@@H](OC(F)(F)F)C4)nn3)(C1)C2)[C@H]1C[C@@H](O)c2cc(Cl)ccc2O1` [Compound 385, (2R,4R)-6-chloro-4-hydroxy-N-(3-{4-[cis-3-(trifluoromethoxy)cyclobutyl]-1H-1,2,3-triazol-1-yl}bicyclo[1.1.1]pentan-1-yl)-3,4-dihydro-2H-1-benzopyran-2-carboxamide], the EC50 is below 10 nM. Then `O=C(NC12CC(n3cnc(C(=O)N4CC[C@H](OC(F)(F)F)C4)c3)(C1)C2)[C@H]1C[C@@H](O)c2cc(Cl)ccc2O1` [Compound 386, (2R,4R)-6-chloro-4-hydroxy-N-(3-{4-[(3S)-3-(trifluoromethoxy)pyrrolidine-1-carbonyl]-1H-imidazol-1-yl}bicyclo[1.1.1]pentan-1-yl)-3,4-dihydro-2H-1-benzopyran-2-carboxamide], with below 10 nM; and `Cn1nc(C23CC(NC(=O)COc4ccc(Cl)c(F)c4)(C2)C3)cc1OC[C@H]1C[C@@H](OC(F)(F)F)C1` [Compound 387, 2-(4-chloro-3-fluorophenoxy)-N-[3-(1-methyl-5-{[cis-3-(trifluoromethoxy)cyclobutyl]methoxy}-1H-pyrazol-3-yl)bicyclo[1.1.1]pentan-1-yl]acetamide], with 50 to 250 nM. As for `O=C(CO[C@H]1C[C@@H](OC(F)(F)F)C1)N[C@H]1C[C@H]2C[C@@H]1C[C@@H]2NC(=O)[C@@H]1C[C@@H](O)c2cc(Cl)ccc2O1` [Compound 388, (2S,4R)-6-chloro-4-hydroxy-N-[(1R,2S,4R,5S)-5-(2-{[cis-3-(trifluoromethoxy)cyclobutyl]oxy}acetamido)bicyclo[2.2.1]heptan-2-yl]-3,4-dihydro-2H-1-benzopyran-2-carboxamide], the figure is 50 to 250 nM; as for `O=C(NC12CC(n3cc(N4CC[C@@H](OC(F)(F)F)C4)cn3)(C1)C2)[C@H]1C[C@@H](O)c2cc(Cl)c(F)cc2O1` [Compound 389, (2R,4R)-6-chloro-7-fluoro-4-hydroxy-N-(3-{4-[(3R)-3-(trifluoromethoxy)pyrrolidin-1-yl]-1H-pyrazol-1-yl}bicyclo[1.1.1]pentan-1-yl)-3,4-dihydro-2H-1-benzopyran-2-carboxamide], below 10 nM. As for `O=C(NC12CC(n3cc(C(=S)N4CC[C@H](OC(F)(F)F)C4)cn3)(C1)C2)[C@H]1C[C@@H](O)c2cc(Cl)ccc2O1` [Compound 390, (2R,4R)-6-chloro-4-hydroxy-N-(3-{4-[(3S)-3-(trifluoromethoxy)pyrrolidine-1-carbothioyl]-1H-pyrazol-1-yl}bicyclo[1.1.1]pentan-1-yl)-3,4-dihydro-2H-1-benzopyran-2-carboxamide], the figure is below 10 nM; as for `O=C(NC12CC(n3cnc(-c4ccc(OC(F)(F)F)c(F)c4F)c3)(C1)C2)[C@H]1C[C@@H](O)c2cc(Cl)ccc2O1` [Compound 391, (2R,4R)-6-chloro-N-(3-{4-[2,3-difluoro-4-(trifluoromethoxy)phenyl]-1H-imidazol-1-yl}bicyclo[1.1.1]pentan-1-yl)-4-hydroxy-3,4-dihydro-2H-1-benzopyran-2-carboxamide], below 10 nM. In the case of `O=C(NC12CC(n3cnc(C(=O)N4CCC[C@@H](OC(F)(F)F)C4)c3)(C1)C2)[C@H]1C[C@@H](O)c2cc(Cl)ccc2O1` [Compound 392, (2R,4R)-6-chloro-4-hydroxy-N-(3-{4-[(3R)-3-(trifluoromethoxy)piperidine-1-carbonyl]-1H-imidazol-1-yl}bicyclo[1.1.1]pentan-1-yl)-3,4-dihydro-2H-1-benzopyran-2-carboxamide], the EC50 lay in the range of 250 to 500 nM. Then `O=C(CO[C@H]1C[C@@H](OC(F)(F)F)C1)N[C@@H]1C[C@@H]2C[C@H]1C[C@H]2NC(=O)[C@@H]1C[C@@H](O)c2cc(Cl)ccc2O1` [Compound 393, (2S,4R)-6-chloro-4-hydroxy-N-[(1S,2R,4S,5R)-5-(2-{[cis-3-(trifluoromethoxy)cyclobutyl]oxy}acetamido)bicyclo[2.2.1]heptan-2-yl]-3,4-dihydro-2H-1-benzopyran-2-carboxamide], with 50 to 250 nM; and `O=C(NC12CC(n3cnc(-c4ccc(Cl)c(F)c4F)c3)(C1)C2)[C@H]1C[C@@H](O)c2cc(Cl)ccc2O1` [Compound 394, (2R,4R)-6-chloro-N-{3-[4-(4-chloro-2,3-difluorophenyl)-1H-imidazol-1-yl]bicyclo[1.1.1]pentan-1-yl}-4-hydroxy-3,4-dihydro-2H-1-benzopyran-2-carboxamide], with below 10 nM; and `O=C(NC12CC(n3cnc(C(=O)N4CC(OC(F)(F)F)C4)c3)(C1)C2)[C@H]1C[C@@H](O)c2cc(Cl)ccc2O1` [Compound 395, (2R,4R)-6-chloro-4-hydroxy-N-(3-{4-[3-(trifluoromethoxy)azetidine-1-carbonyl]-1H-imidazol-1-yl}bicyclo[1.1.1]pentan-1-yl)-3,4-dihydro-2H-1-benzopyran-2-carboxamide], with 10 to 50 nM.

With `COc1ncc(-c2cnn(C34CC(NC(=O)[C@@H]5C[C@@H](O)c6cc(Cl)ccc6O5)(C3)C4)c2)cn1` [Compound 396, (2S,4R)-6-chloro-4-hydroxy-N-{3-[4-(2-methoxypyrimidin-5-yl)-1H-pyrazol-1-yl]bicyclo[1.1.1]pentan-1-yl}-3,4-dihydro-2H-1-benzopyran-2-carboxamide], the EC50 was in the range of 50 to 250 nM. Then `O=C(NC12CC(n3cc(C(=O)N4CC[C@@H](COC(F)(F)F)C4)cn3)(C1)C2)[C@H]1C[C@@H](O)c2cc(Cl)ccc2O1` [Compound 397, (2R,4R)-6-chloro-4-hydroxy-N-[3-(4-{(3R)-3-[(trifluoromethoxy)methyl]pyrrolidine-1-carbonyl}-1H-pyrazol-1-yl)bicyclo[1.1.1]pentan-1-yl]-3,4-dihydro-2H-1-benzopyran-2-carboxamide], with 50 to 250 nM; and `O=C(NC12CC(n3cc(C(=O)N4CC[C@@H](OC(F)F)C4)cn3)(C1)C2)[C@H]1C[C@@H](O)c2cc(Cl)ccc2O1` [Compound 399, (2R,4R)-6-chloro-N-(3-{4-[(3R)-3-(difluoromethoxy)pyrrolidine-1-carbonyl]-1H-pyrazol-1-yl}bicyclo[1.1.1]pentan-1-yl)-4-hydroxy-3,4-dihydro-2H-1-benzopyran-2-carboxamide], with 250 to 500 nM. Then `O=C(NC12CC(n3cc(C(=O)N4CC[C@H](COC(F)(F)F)C4)cn3)(C1)C2)[C@H]1C[C@@H](O)c2cc(Cl)ccc2O1` [Compound 400, (2R,4R)-6-chloro-4-hydroxy-N-[3-(4-{(3S)-3-[(trifluoromethoxy)methyl]pyrrolidine-1-carbonyl}-1H-pyrazol-1-yl)bicyclo[1.1.1]pentan-1-yl]-3,4-dihydro-2H-1-benzopyran-2-carboxamide], with 10 to 50 nM. Then `C[Si]1(C)CCN(C(=O)c2cnn(C34CC(NC(=O)[C@H]5C[C@@H](O)c6cc(Cl)ccc6O5)(C3)C4)c2)C1` [Compound 401, (2R,4R)-6-chloro-N-{3-[4-(3,3-dimethyl-1,3-azasilolidine-1-carbonyl)-1H-pyrazol-1-yl]bicyclo[1.1.1]pentan-1-yl}-4-hydroxy-3,4-dihydro-2H-1-benzopyran-2-carboxamide], with 250 to 500 nM.

Turning to `O=C(NC12CC(n3cc(OC[C@H]4C[C@@H](OC(F)(F)F)C4)cn3)(C1)C2)[C@H]1C[C@@H](O)c2cc(Cl)ccc2O1` [Compound 402, (2R,4R)-6-chloro-4-hydroxy-N-[3-(4-{[cis-3-(trifluoromethoxy)cyclobutyl]methoxy}-1H-pyrazol-1-yl)bicyclo[1.1.1]pentan-1-yl]-3,4-dihydro-2H-1-benzopyran-2-carboxamide], the concentration for a half-maximal effect (EC50) is below 10 nM. As for `O=C(NC12CC(n3cc(-c4ccc(OC(F)(F)F)cn4)cn3)(C1)C2)[C@H]1C[C@@H](O)c2cc(C(F)(F)F)ccc2O1` [Compound 403, (2R,4R)-4-hydroxy-N-(3-{4-[5-(trifluoromethoxy)pyridin-2-yl]-1H-pyrazol-1-yl}bicyclo[1.1.1]pentan-1-yl)-6-(trifluoromethyl)-3,4-dihydro-2H-1-benzopyran-2-carboxamide], the half-maximal effective concentration (EC50) was below 10 nM. With `O=C(NC12CC(n3cc(O[C@H]4C[C@@H](OC(F)(F)F)C4)cn3)(C1)C2)[C@H]1C[C@@H](O)c2cc(Cl)ccc2O1` [Compound 409, (2R,4R)-6-chloro-4-hydroxy-N-[3-(4-{[cis-3-(trifluoromethoxy)cyclobutyl]oxy}-1H-pyrazol-1-yl)bicyclo[1.1.1]pentan-1-yl]-3,4-dihydro-2H-1-benzopyran-2-carboxamide], the EC50 was below 10 nM.

By EC50 is commonly meant the concentration that produces a half-maximal response.
